This is an account of results in patent US20240238425A1, “HSD17B13 Inhibitors and/or Degraders” (Pfizer Inc., priority 2022, published 2024).

The assay concerns HiBiT-HSD17β13 fusion protein (N-terminal HiBiT-tagged HSD17β13 isoform D) in Huh7 HiBiT-HSD17β13 OE cells. The experiment in a line: Whole-cell Huh7-HSD17B13 HiBiT assay (degrader potency and maximal efficacy, luminescence readout). In kind it is cell-based, human. To be noted: 24 hour incubation, geometric mean, * = geometric mean for all forms tested (parent and salt forms); for DC50: read-out: Huh7_HIBIT-HSD17β13_DC50 GMean DC50; for Huh7_HIBIT-HSD17β13_DC50 GMean Asymptote Maximum: max. concentration 1 μM. In outline: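 Luminescence from lytic HiBiT detection tracked residual HiBiT-HSD17β13 (isoform D, N-terminal tag) in a stable Huh7 overexpressing clone after 24 h compound treatment at 37° C, 11 concentrations up to 1 μM final. Percent effect used DMSO (zero) and parental Huh7 (high) wells; four-parameter fit gave 50% degradation; viability checked by CellTiter-Glo.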
In general terms: With HiBiT, luminescence reflects the tagged protein that the partner subunit can reach.

Where a name gives a salt, the structure may show the parent alone.

With `Cn1c(=O)n(C2CCC(=O)NC2=O)c2ccc(CN3CCN(c4ccc5cn([C@H]6CC[C@H](CNC(=O)c7cc(F)c(O)c(F)c7F)CC6)nc5c4)CC3)cc21` (mixture of isomers) [Example 51, N-{[(1r,4r)-4-{6-[4-({1-[(3RS)-2,6-dioxopiperidin-3-yl]-3-methyl-2-oxo-2,3-dihydro-1H-benzimidazol-5-yl}methyl)piperazin-1-yl]-1H-indazol-2-yl}cyclohexyl]methyl}-2,3,5-trifluoro-4-hydroxybenzamide, trifluoroacetate salt], the DC50 stood at 2.1 nM and the “Huh7_HIBIT-HSD17β13_DC50 GMean Asymptote Maximum” value worked out at 73%.

On to `Cn1c(=O)n(C2CCC(=O)NC2=O)c2cccc(CN3CCN(c4ccc5cn([C@H]6CC[C@H](CNC(=O)c7cc(F)c(O)c(F)c7F)CC6)nc5c4)CC3)c21` (mixture of isomers) [Example 52, N-{[(1r,4r)-4-{6-[4-({1-[(3RS)-2,6-dioxopiperidin-3-yl]-3-methyl-2-oxo-2,3-dihydro-1H-benzimidazol-4-yl}methyl)piperazin-1-yl]-2H-indazol-2-yl}cyclohexyl]methyl}-2,3,5-trifluoro-4-hydroxybenzamide, trifluoroacetate salt], for which the DC50 came out at 1.6 nM and the “Huh7_HIBIT-HSD17β13_DC50 GMean Asymptote Maximum” value is recorded as 80%.

On to `Cn1c(=O)n(C2CCC(=O)NC2=O)c2ccc(CCN3CCN(c4ccc(-c5noc([C@]67CC[C@](CNC(=O)c8cc(F)c(O)c(F)c8F)(CC6)CC7)n5)nn4)CC3)cc21` (mixture of isomers) [Example 55, N-{[4-(3-{6-[4-(2-{1-[(3RS)-2,6-dioxopiperidin-3-yl]-3-methyl-2-oxo-2,3-dihydro-1H-benzimidazol-5-yl}ethyl)piperazin-1-yl]pyridazin-3-yl}-1,2,4-oxadiazol-5-yl)bicyclo[2.2.2]octan-1-yl]methyl}-2,3,5-trifluoro-4-hydroxybenzamide, trifluoroacetate salt], for which the 50% degradation concentration (DC50) came out at 0.49 nM and the “Huh7_HIBIT-HSD17β13_DC50 GMean Asymptote Maximum” value is 82%.

As to `Cn1c(=O)n(C2CCC(=O)NC2=O)c2cccc(CCN3CCN(c4ccc5cn([C@H]6CC[C@H](CNC(=O)c7cc(F)c(O)c(F)c7F)CC6)nc5c4)CC3)c21` (mixture of isomers) [Example 56, N-{[(1r,4r)-4-{6-[4-(2-{1-[(3RS)-2,6-dioxopiperidin-3-yl]-3-methyl-2-oxo-2,3-dihydro-1H-benzimidazol-4-yl}ethyl)piperazin-1-yl]-2H-indazol-2-yl}cyclohexyl]methyl}-2,3,5-trifluoro-4-hydroxybenzamide, trifluoroacetate salt], the 50% degradation concentration (DC50) amounted to 0.64 nM and the “Huh7_HIBIT-HSD17β13_DC50 GMean Asymptote Maximum” value worked out at 82%.

As to `Cn1c(=O)n(C2CCC(=O)NC2=O)c2ccc(CCN3CCN(c4nccc(-c5nc([C@]67CC[C@](CNC(=O)c8cc(F)c(O)c(F)c8F)(CC6)CC7)no5)n4)CC3)cc21` (mixture of isomers) [Example 60, N-{[4-(5-{2-[4-(2-{1-[(3RS)-2,6-dioxopiperidin-3-yl]-3-methyl-2-oxo-2,3-dihydro-1H-benzimidazol-5-yl}ethyl)piperazin-1-yl]pyrimidin-4-yl}-1,2,4-oxadiazol-3-yl)bicyclo[2.2.2]octan-1-yl]methyl}-2,3,5-trifluoro-4-hydroxybenzamide, trifluoroacetate salt], the DC50 was found to be 0.65 nM and the “Huh7_HIBIT-HSD17β13_DC50 GMean Asymptote Maximum” value is 78%.

For the compound `Cn1c(=O)n(C2CCC(=O)NC2=O)c2ccc(CCN3CCC(Cc4ccc5cn([C@H]6CC[C@H](CNC(=O)c7cc(F)c(O)c(F)c7F)CC6)nc5c4)C(F)(F)C3)cc21` (mixture of isomers) [Example 64, N-{[(1r,4r)-4-(6-{[1-(2-{1-[(3RS)-2,6-dioxopiperidin-3-yl]-3-methyl-2-oxo-2,3-dihydro-1H-benzimidazol-5-yl}ethyl)-3,3-difluoropiperidin-4-yl]methyl}-2H-indazol-2-yl)cyclohexyl]methyl}-2,3,5-trifluoro-4-hydroxybenzamide, trifluoroacetate salt], the DC50 is 0.51 nM and the “Huh7_HIBIT-HSD17β13_DC50 GMean Asymptote Maximum” value came to 85%.

Regarding `Cn1c(=O)n(C2CCC(=O)NC2=O)c2ccc(CCCN3CC(F)(F)CC4(CCN(c5ccc6cn([C@H]7CC[C@H](CNC(=O)c8cc(F)c(O)c(F)c8F)CC7)nc6c5)C4=O)C3)cc21` (mixture of isomers) [Example 65, N-{[(1r,4r)-4-{6-[7-(3-{1-[(3RS)-2,6-dioxopiperidin-3-yl]-3-methyl-2-oxo-2,3-dihydro-1H-benzimidazol-5-yl}propyl)-9,9-difluoro-1-oxo-2,7-diazaspiro[4.5]decan-2-yl]-2H-indazol-2-yl}cyclohexyl]methyl}-2,3,5-trifluoro-4-hydroxybenzamide, trifluoroacetate salt], the DC50 turned out to be 3.8 nM and the “Huh7_HIBIT-HSD17β13_DC50 GMean Asymptote Maximum” value is 81%.

In the case of `Cn1c(=O)n(C2CCC(=O)NC2=O)c2ccc(CCCN3CCN(c4ccc(-c5nc([C@]67CC[C@](CNC(=O)c8cc(F)c(O)c(F)c8F)(CC6)CC7)no5)nn4)CC3)cc21` (mixture of isomers) [Example 66, N-{[4-(5-{6-[4-(3-{1-[(3RS)-2,6-dioxopiperidin-3-yl]-3-methyl-2-oxo-2,3-dihydro-1H-benzimidazol-5-yl}propyl)piperazin-1-yl]pyridazin-3-yl}-1,2,4-oxadiazol-3-yl)bicyclo[2.2.2]octan-1-yl]methyl}-2,3,5-trifluoro-4-hydroxybenzamide, trifluoroacetate salt], the 50% degradation concentration (DC50) came to 0.32 nM and the “Huh7_HIBIT-HSD17β13_DC50 GMean Asymptote Maximum” value worked out at 75%.

With `Cn1c(=O)n(C2CCC(=O)NC2=O)c2ccc(CCCN3CCN(c4ncc(-c5nc([C@]67CC[C@](CNC(=O)c8cc(F)c(O)c(F)c8F)(CC6)CC7)no5)cn4)CC3)cc21` (mixture of isomers) [Example 67, N-{[4-(5-{2-[4-(3-{1-[(3RS)-2,6-dioxopiperidin-3-yl]-3-methyl-2-oxo-2,3-dihydro-1H-benzimidazol-5-yl}propyl)piperazin-1-yl]pyrimidin-5-yl}-1,2,4-oxadiazol-3-yl)bicyclo[2.2.2]octan-1-yl]methyl}-2,3,5-trifluoro-4-hydroxybenzamide, trifluoroacetate salt], the DC50 is 0.18 nM and the “Huh7_HIBIT-HSD17β13_DC50 GMean Asymptote Maximum” value is 89%.

For `Cn1c(=O)n(C2CCC(=O)NC2=O)c2ccc(CCCN3CCN(c4cnc(-c5nc([C@]67CC[C@](CNC(=O)c8cc(F)c(O)c(F)c8F)(CC6)CC7)no5)cn4)CC3)cc21` (mixture of isomers) [Example 69, N-{[4-(5-{5-[4-(3-{1-[(3RS)-2,6-dioxopiperidin-3-yl]-3-methyl-2-oxo-2,3-dihydro-1H-benzimidazol-5-yl}propyl)piperazin-1-yl]pyrazin-2-yl}-1,2,4-oxadiazol-3-yl)bicyclo[2.2.2]octan-1-yl]methyl}-2,3,5-trifluoro-4-hydroxybenzamide, trifluoroacetate salt], the DC50 is 0.16 nM and the “Huh7_HIBIT-HSD17β13_DC50 GMean Asymptote Maximum” value was 88%.

On to `Cn1c(=O)n(C2CCC(=O)NC2=O)c2ccc(CCN3CCOC4(CCN(c5ccc6cn([C@H]7CC[C@H](CNC(=O)c8cc(F)c(O)c(F)c8F)CC7)nc6c5)CC4)C3)cc21` (mixture of isomers) [Example 74, N-{[(1r,4r)-4-{6-[4-(2-{1-[(3RS)-2,6-dioxopiperidin-3-yl]-3-methyl-2-oxo-2,3-dihydro-1H-benzimidazol-5-yl}ethyl)-1-oxa-4,9-diazaspiro[5.5]undecan-9-yl]-2H-indazol-2-yl}cyclohexyl]methyl}-2,3,5-trifluoro-4-hydroxybenzamide, trifluoroacetate salt], for which the DC50 came out at 0.23 nM and the “Huh7_HIBIT-HSD17β13_DC50 GMean Asymptote Maximum” value worked out at 87%.

Turning to `Cn1c(=O)n(C2CCC(=O)NC2=O)c2ccc(CCCN3CCOC4(CCN(c5ccc6cn([C@H]7CC[C@H](CNC(=O)c8cc(F)c(O)c(F)c8F)CC7)nc6c5)CC4)C3)cc21` (mixture of isomers) [Example 75, N-{[(1r,4r)-4-{6-[4-(3-{1-[(3RS)-2,6-dioxopiperidin-3-yl]-3-methyl-2-oxo-2,3-dihydro-1H-benzimidazol-5-yl}propyl)-1-oxa-4,9-diazaspiro[5.5]undecan-9-yl]-2H-indazol-2-yl}cyclohexyl]methyl}-2,3,5-trifluoro-4-hydroxybenzamide, trifluoroacetate salt], the DC50 amounted to 0.19 nM and the “Huh7_HIBIT-HSD17β13_DC50 GMean Asymptote Maximum” value is on record as 88%.

In the case of `Cn1c(=O)n(C2CCC(=O)NC2=O)c2ccc(CCCN3CCN(c4cnc(-c5ccc6cn([C@H]7CC[C@H](CNC(=O)c8cc(F)c(O)c(F)c8F)CC7)nc6c5)nc4)CC3)cc21` (mixture of isomers) [Example 76, N-{[(1r,4r)-4-(6-{5-[4-(3-{1-[(3RS)-2,6-dioxopiperidin-3-yl]-3-methyl-2-oxo-2,3-dihydro-1H-benzimidazol-5-yl}propyl)piperazin-1-yl]pyrimidin-2-yl}-2H-indazol-2-yl)cyclohexyl]methyl}-2,3,5-trifluoro-4-hydroxybenzamide, trifluoroacetate salt], the DC50 was 0.15 nM and the “Huh7_HIBIT-HSD17β13_DC50 GMean Asymptote Maximum” value is listed as 89* %.

Consider `Cn1c(=O)n(C2CCC(=O)NC2=O)c2ccc(CN3CCOC4(CCN(c5ccc6cn([C@H]7CC[C@H](CNC(=O)c8cc(F)c(O)c(F)c8F)CC7)nc6c5)CC4)C3)cc21` (mixture of isomers) [Example 77, N-{[(1r,4r)-4-{6-[4-({1-[(3RS)-2,6-dioxopiperidin-3-yl]-3-methyl-2-oxo-2,3-dihydro-1H-benzimidazol-5-yl}methyl)-1-oxa-4,9-diazaspiro[5.5]undecan-9-yl]-2H-indazol-2-yl}cyclohexyl]methyl}-2,3,5-trifluoro-4-hydroxybenzamide, trifluoroacetate salt], for which the DC50 is 0.93 nM and the “Huh7_HIBIT-HSD17β13_DC50 GMean Asymptote Maximum” value was 86%.

As a reminder, the DC50 is the concentration at which degradation of the target reaches its halfway point.
